# Source: patent US9708336B2, “Metallo-beta-lactamase inhibitors” (priority 2014, dated 2017)
# Where two headings read alike, the source gives them in different places.
# Legend:
# NDM-1 = NDM-1 (Klebsiella pneumoniae, UniProt C7C422); experiment: biochemical; type: biochemical; conditions: NDM-1 enzyme, read-out: NDM-1 IC50
# IMP-1 = IMP-1 (Serratia marcescens, UniProt P52699); experiment: biochemical; type: biochemical; conditions: IMP-1 enzyme, read-out: IMP-1 IC50
# VIM-1 = VIM-1 (Pseudomonas aeruginosa (strain ATCC 15692 / DSM 22644 / CIP 104116 / JCM 14847 / LMG 12228 / 1C / PRS 101 / PAO1), UniProt A0A0F7KYQ8); experiment: Enzyme activity: determination of IC50, fluorescence assay with CCF2-FA substrate (VIM-1); type: biochemical
# [1] = tested on: Klebsiella pneumoniae expressing VIM-1 (IHMA599644); experiment: Antibiotic potentiation activity: synergistic concentration (MITC95) with imipenem, OD600 growth; type: cell-based; conditions: for Klebsiella pneumoniae MITC95: 95% growth inhibition
# Experimental: (§1) Antibiotic Potentiation Activity: Determination of Synergistic Concentration
# (§2) The bacterial strains tested included the clinical strains Escherichia coli expressing NDM-1 (CLB30005, CLB30016), Serratia marcescens expressing IMP-1 (CL5741), and Klebsiella pneumoniae expressing VIM-1 (IHMA599644) Inhibitor activity was measured in the presence and absence of imipenem in a 384-well microplate.
# (§3) The clinical strains CLB30016, CL5741 and IHMA599644 were grown on trypticase soy agar containing 5% sheep's blood. The clinical strain CLB30005 was grown on Mueller Hinton broth agar containing 8 ug/ml imipenem. The bacteria on agar plates were incubated at 35° C. with humidity overnight. The following day, individual colonies from each clinical strain were picked and resuspended in 5 ml saline to attain an OD600 of 0.14, 0.11, 0.15 and 0.13, for CLB30005, CLB30016, CL5741 and IHMA599644, respectively. These were further diluted 1:100 into 1.1×CAMHB and used to inoculate the test wells as described below.
# (§4) Imipenem in 10 mM 3-(N-morpholino)propanesulfonic acid (MOPS, pH 7) was stored in single use aliquots at −80° C. […] On the day of the assay, 4 μl of antibiotic was added to 45 ul of bacteria followed by 1 μl of test compound and mixed by pipetting and with an orbital shaker. The concentration of antibiotic used in the assay was 4 μg/ml, or optionally 1 μg/ml. Microplates were covered and incubated at 35° C. for 22 hours to 24 hours. At the end of the incubation, absorbance was determined using a spectrophotometer.
# [2] = tested on: Serratia marcescens expressing IMP-1 (CL5741); experiment: as above; type: cell-based; conditions: for Serratia marcescens MITC95: 95% growth inhibition
# Experimental: as §1, §2, §3, §4
# [3] = tested on: Escherichia coli expressing NDM-1 (CLB30016); experiment: as above; type: cell-based; conditions: for Escherichia coli MITC95: 95% growth inhibition
# Experimental: as §1, §2, §3, §4
# [4] = VIM-1 enzyme, CCF2-FA fluorescence assay, read-out: VIM-1 IC50
# [5] = Klebsiella pneumoniae expressing VIM-1 (IHMA599644)
# [6] = Serratia marcescens expressing IMP-1 (CL5741)
# [7] = Escherichia coli expressing NDM-1 (CLB30016)
# [8] = Klebsiella pneumoniae IHMA599644 (VIM-1)
# [9] = Serratia marcescens CL5741 (IMP-1)
# [10] = concentration giving 95% inhibition of bacterial growth
# [11] = VIM-1 enzyme, CCF2-FA substrate, read-out: VIM-1 IC50
# Sequence of IMP-1 (P52699 whole entry, looked up): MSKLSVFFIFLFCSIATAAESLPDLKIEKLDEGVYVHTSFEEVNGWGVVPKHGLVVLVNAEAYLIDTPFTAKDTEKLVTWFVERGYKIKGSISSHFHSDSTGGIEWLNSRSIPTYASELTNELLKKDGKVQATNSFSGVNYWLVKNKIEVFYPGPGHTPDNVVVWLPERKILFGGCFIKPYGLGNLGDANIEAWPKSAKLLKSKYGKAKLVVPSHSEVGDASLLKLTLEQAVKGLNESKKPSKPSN
# Sequence of NDM-1 (C7C422 whole entry, looked up, species assumed): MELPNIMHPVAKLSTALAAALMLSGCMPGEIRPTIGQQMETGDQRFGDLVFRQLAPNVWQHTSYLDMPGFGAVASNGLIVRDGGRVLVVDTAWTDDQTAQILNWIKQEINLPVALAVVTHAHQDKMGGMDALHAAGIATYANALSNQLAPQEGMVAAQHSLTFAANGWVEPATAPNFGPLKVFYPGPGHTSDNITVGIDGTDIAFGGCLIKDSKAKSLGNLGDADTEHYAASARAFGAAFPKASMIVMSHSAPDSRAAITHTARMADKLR
SMILES,"Klebsiella pneumoniae MITC95 [1, 5] [µM]","Serratia marcescens MITC95 [2, 6] [µM]","Escherichia coli MITC95 [3, 7] [µM]","Klebsiella pneumoniae MITC95 [1, 8] [µM]","Serratia marcescens MITC95 [2, 9] [µM]","Escherichia coli MITC95 ([3]; (CLB30016, NDM-1)) [µM]",IC50 (VIM-1; [11]) [µM],also measured
"Cl.Cl.NC1CNCCC1(O)c1ccc(-c2cccc(S(N)(=O)=O)c2-c2nn[nH]n2)cc1 (racemic) [Example 282, 4′-(3-amino-4-hydroxypiperidin-4-yl)-2-(2H-tetrazol-5-yl)-[1,1′-biphenyl]-3-sulfonamide dihydrochloride (trans, racemate)]",12.5,1.563,0.7813,–,–,–,–,IC50 (NDM-1; CCF2-FA fluorescence assay): 0.0215 µM; IC50 (IMP-1; CCF2-FA fluorescence assay): 0.266 µM; IC50 (VIM-1; [4]): 0.183 µM
"CCC(CO)NCc1ccc(-c2cccc(S(N)(=O)=O)c2-c2nnn[nH]2)cc1 (stereo in doubt) [Example 345, 4′-({[(1S)-1-(hydroxymethyl)propyl]amino}methyl)-2-(1H-tetrazol-5-yl)biphenyl-3-sulfonamide]",50,4.688,1.563,–,–,–,–,IC50 (NDM-1; CCF2-FA fluorescence assay): 0.0185 µM; IC50 (IMP-1; CCF2-FA fluorescence assay): 0.213 µM; IC50 (VIM-1; [4]): 0.269 µM
"NS(=O)(=O)c1cccc(-c2ccc(CN3CCC(CO)C3)cc2)c1-c1nnn[nH]1 (stereo in doubt) [Example 391, 4′-{[(3S)-3-(hydroxymethyl)pyrrolidin-1-yl]methyl}-2-(1H-tetrazol-5-yl)biphenyl-3-sulfonamide]",50,2.344,1.172,–,–,–,–,"IC50 (NDM-1; CCF2-FA fluorescence assay): 0.0189 µM; IC50 (IMP-1; CCF2-FA fluorescence assay): 0.348 µM; IC50 (VIM-1; VIM-1 IC50, VIM-1 enzyme, CCF2-FA fluorescence assay): 0.401 µM"
"NS(=O)(=O)c1cccc(-c2ccc(N3CCC3CO)nc2)c1-c1nnn[nH]1 (stereo in doubt) [Example 636, 3-[6-[(2S)-2-(hydroxymethyl)azetidin-1-yl]-3-pyridyl]-2-(1H-tetrazol-5-yl)benzenesulfonamide]",–,–,–,>200,4.688,0.3906,–,"IC50 (NDM-1; CCF2-FA substrate): 0.00154 µM; IC50 (IMP-1; CCF2-FA substrate): 0.0372 µM; IC50 (VIM-1; VIM-1 IC50, VIM-1 enzyme, CCF2-FA substrate): 0.0889 µM"
"CS(=O)(=O)NC1CCC(c2cccc(S(N)(=O)=O)c2-c2nn[nH]n2)CC1 (stereo not shown) [Example 169, 3-(4-(methylsulfonamido)cyclohexyl)-2-(2H-tetrazol-5-yl)benzenesulfonamide]",–,–,–,–,–,–,–,"IC50 (VIM-1; VIM-1 IC50, fluorescence assay with CCF2-FA substrate): 0.0576 µM; Klebsiella pneumoniae expressing VIM-1 (IHMA 599644) MITC95 [1, 10]: 50 µM; Serratia marcescens expressing IMP-1 (CL5741) MITC95 [2, 10]: 3.125 µM; Escherichia coli expressing NDM-1 (CLB 30016) MITC95 [3, 10]: 2.344 µM"
"NCc1ccc(-c2ccc(Br)c(S(N)(=O)=O)c2-c2nn[nH]n2)cc1 [Example 271, 4′-(aminomethyl)-4-bromo-2-(2H-tetrazol-5-yl)-[1,1′-biphenyl]-3-sulfonamide]",2.344,0.5859,0.3906,–,–,–,–,IC50 (VIM-1; [4]): 0.0117 µM
"NS(=O)(=O)c1c(CCC2CCNCC2)ccc(-c2ccnc3ccccc23)c1-c1nn[nH]n1 [Example 452, 6-(2-(piperidin-4-yl)ethyl)-3-(quinolin-4-yl)-2-(2H-tetrazol-5-yl)benzenesulfonamide]",4.688,9.375,1.563,–,–,–,–,IC50 (VIM-1; [4]): 0.00198 µM
"C[N+]1(C)CCc2c(cccc2-c2ccc(C(F)(F)F)c(S(N)(=O)=O)c2-c2nn[nH]n2)C1 [Example 520, 2,2-Dimethyl-5-(3-sulfamoyl-2-(2H-tetrazol-5-yl)-4-(trifluoromethyl)phenyl)-1,2,3,4-tetrahydroisoquinolin-2-ium]",–,–,–,3.125,3.125,3.125,0.00196,–
"CC(C)(C)Cc1ccc(-c2cccc3sc(N)nc23)c(-c2nn[nH]n2)c1S(N)(=O)=O [Example 537, 3-(2-Aminobenzo[d]thiazol-4-yl)-6-neopentyl-2-(2H-tetrazol-5-yl)benzenesulfonamide]",–,–,–,>200,50,50,0.0667,–
"Nc1nc2c(-c3ccc(CCC4CCNCC4)c(S(N)(=O)=O)c3-c3nn[nH]n3)cccc2s1 [Example 540, 3-(2-Aminobenzo[d]thiazol-4-yl)-6-(2-(piperidin-4-yl)ethyl)-2-(2H-tetrazol-5-yl)benzenesulfonamide]",–,–,–,12.5,6.25,1.563,0.0067,–
"Cc1nc(N)ccc1-c1ccc(C(F)(F)F)c(S(N)(=O)=O)c1-c1nn[nH]n1 [Example 555, 3-(6-amino-2-methyl-3-pyridyl)-2-(2H-tetrazol-5-yl)-6-(trifluoromethyl)benzenesulfonamide]",–,–,–,3.125,6.25,0.5859,0.000177,–
"Cc1cc(N)ncc1-c1ccc(C(F)(F)F)c(S(N)(=O)=O)c1-c1nn[nH]n1 [Example 557, 3-(6-amino-4-methyl-3-pyridyl)-2-(2H-tetrazol-5-yl)-6-(trifluoromethyl)benzenesulfonamide]",–,–,–,6.25,6.25,0.3906,0.000656,–
"NS(=O)(=O)c1c(CCC2CCNCC2)ccc(-c2ccc(C3CNC3)cc2)c1-c1nnn[nH]1 [Example 598, 3-[4-(azetidin-3-yl)phenyl]-6-[2-(4-piperidyl)ethyl]-2-(1H-tetrazol-5-yl)benzenesulfonamide]",–,–,–,1.563,3.125,1.563,0.00441,–
"C[N+]1(C)CCC(Cc2ccc(-c3ccc(C4CNC4)cc3)c(-c3nn[nH]n3)c2S(N)(=O)=O)CC1 [Example 605, 3-[4-(azetidin-3-yl)phenyl]-6-[(1,1-dimethylpiperidin-1-ium-4-yl)methyl]-2-(2H-tetrazol-5-yl)benzenesulfonamide]",–,–,–,3.125,6.25,6.25,0.00389,IC50 (IMP-1; CCF2-FA substrate): 0.16 µM
"Cn1cncc1CN1CCC(c2ccc(-c3cccc(S(N)(=O)=O)c3-c3nnn[nH]3)cc2)CC1 [Example 620, 3-[4-[1-[(3-methylimidazol-4-yl)methyl]-4-piperidyl]phenyl]-2-(1H-tetrazol-5-yl)benzenesulfonamide]",–,–,–,>200,2.344,7.813,1.03,–
"Cn1ccnc1CN1CCC(c2ccc(-c3cccc(S(N)(=O)=O)c3-c3nnn[nH]3)cc2)CC1 [Example 621, 3-[4-[1-[(1-methylimidazol-2-yl)methyl]-4-piperidyl]phenyl]-2-(1H-tetrazol-5-yl)benzenesulfonamide]",–,–,–,>200,1.563,3.906,0.508,–
